Measurements reported in patent US7109338B2, “1,2-disubstituted 1,4-dihydro-4-oxoquinoline compounds” (priority 1999, dated 2006).
≈ marks a conversion by molar mass, not a printed value.

Legend:
HeLa (Ohio strain)cells = experiment: Cytotoxicity (MTT, without virus), HeLa(Ohio); conditions: HeLa(Ohio), no virus, incubated for 4 days
[1] = tested on: echovirus type 11 (Echo 11, Gregory); experiment: In vitro anti-picornavirus activity (MTT), Echo 11; assay type: cell-based; conditions: HeLa-S3 cells, MTT method, 37° C.
HRV16 (11757) = experiment: Anti-rhinovirus spectrum (MTT), HRV16; assay type: cell-based, human rhinovirus; parameters: Anti-Rhinovirus activity, HRV16: unit not given here; conditions: HRV16
HRV31 (41F) = experiment: Anti-rhinovirus spectrum (MTT), HRV31; assay type: cell-based, human rhinovirus; parameters: Anti-Rhinovirus activity, HRV31: unit not given here; conditions: HRV31
HRV32 (363) = experiment: Anti-rhinovirus spectrum (MTT), HRV32; assay type: cell-based, human rhinovirus; parameters: Anti-Rhinovirus activity, HRV32: unit not given here; conditions: HRV32
[2] = tested on: human rhinovirus type 1B (HRV 1B, B632); experiment: Anti-rhinovirus activity (MTT), HRV1B; assay type: cell-based; parameters: Anti-Rhinovirus activity, HRV1B: unit not given here
HeLa-S3 cells = experiment: Cytotoxicity (MTT, without virus), HeLa-S3; conditions: HeLa-S3, no virus, incubated for 4 days
[3] = tested on: clinical isolate (89229T); experiment: microbe, parasite or virus in culture; assay type: cell-based, human rhinovirus; parameters: Anti-Rhinovirus activity, Clinical isolated strain: unit not given here; conditions: Clinical isolated strain
[4] = tested on: coxsackievirus type A7 (CA7); experiment: In vitro anti-picornavirus activity (MTT), CA7; assay type: cell-based; conditions: HeLa-S3 cells, MTT method, 37° C.
HRV39 (209) = experiment: Anti-rhinovirus spectrum (MTT), HRV39; assay type: cell-based, human rhinovirus; parameters: Anti-Rhinovirus activity, HRV39: unit not given here; conditions: HRV39
HeLa cells = experiment: Cytotoxicity (MTT, without virus), HeLa; conditions: HeLa, no virus, incubated for 4 days
HRV36 (342H) = experiment: Anti-rhinovirus spectrum (MTT), HRV36; assay type: cell-based, human rhinovirus; parameters: Anti-Rhinovirus activity, HRV36: unit not given here; conditions: HRV36
HRV10 (204-CV14) = experiment: Anti-rhinovirus spectrum (MTT), HRV10; assay type: cell-based, human rhinovirus; parameters: Anti-Rhinovirus activity, HRV10: unit not given here; conditions: HRV10
HRV29 (5582) = experiment: Anti-rhinovirus spectrum (MTT), HRV29; assay type: cell-based, human rhinovirus; parameters: Anti-Rhinovirus activity, HRV29: unit not given here; conditions: HRV29
HRV 89 (41617-Gallo) = experiment: Anti-rhinovirus activity (MTT), HRV89; assay type: cell-based, human rhinovirus; parameters: Anti-Rhinovirus activity, HRV89: unit not given here
HRV1A (E28) = experiment: Anti-rhinovirus activity (MTT), HRV1A; assay type: cell-based, human rhinovirus; parameters: Anti-Rhinovirus activity, HRV1A: unit not given here
HRV21 (47) = experiment: Anti-rhinovirus spectrum (MTT), HRV21; assay type: cell-based, human rhinovirus; parameters: Anti-Rhinovirus activity, HRV21: unit not given here; conditions: HRV21
HRV8(MRH) = experiment: Anti-rhinovirus spectrum (MTT), HRV8; assay type: cell-based, human rhinovirus; parameters: Anti-Rhinovirus activity, HRV8: unit not given here; conditions: HRV8
HRV 2 (HGP) = experiment: Anti-rhinovirus activity (MTT), HRV2; assay type: cell-based, human rhinovirus; parameters: Anti-Rhinovirus activity, HRV2: unit not given here
[5] = tested on: Poliovirus type 1 (Polio 1, Sabin); experiment: microbe, parasite or virus in culture; assay type: cell-based
HRV33 (1200) = experiment: Anti-rhinovirus spectrum (MTT), HRV33; assay type: cell-based, human rhinovirus; parameters: Anti-Rhinovirus activity, HRV33: unit not given here; conditions: HRV33
[6] = tested on: Human rotavirus (HROV, Odelia); experiment: In vitro anti-rotavirus activity (plaque reduction), HRoV; assay type: cell-based; conditions: MA104 cells, four days after infection
Method: (§1) Human rotavirus (HROV, Odelia) and simian rotavirus (SRoV, SA11) were used in this experiment. Confluent monolayers of MA104 cells in 6-well multiplate were washed with Eagle MEM containing 0.5 μg/ml of trypsin and were infected with tripsinized-rotavirus (treated with 10 μg/ml of tripsin at 37° C. for 1.5 hr) at 50 PFU per well. After 1 hr of adsorption, the virus inoculum was removed, and the monolayers were washed with Eagle MEM containing 0.5 μg/ml of trypsin and overlaid with Eagle MEM containing 1 μg/ml of trypsin, 0.6% purified agar and the test compounds at various concentrations. The cultures were incubated at 37° C. for 3 days and same overlay medium was added. Four days after infection, the cell sheets were washed with PBS and stained with 1.3% crystal violet in 95% ethanol. The antiviral efficacy of the compounds was expressed as the IC50, that is the concentration of the compounds required to reduce the number of plaques to 50% in the control (virus-infected, but […]).

HRV50(A2#58) = experiment: Anti-rhinovirus spectrum (MTT), HRV50; assay type: cell-based, human rhinovirus; parameters: Anti-Rhinovirus activity, HRV50: unit not given here; conditions: HRV50
HRV41 (56110) = experiment: Anti-rhinovirus spectrum (MTT), HRV41; assay type: cell-based, human rhinovirus; parameters: Anti-Rhinovirus activity, HRV41: unit not given here; conditions: HRV41
HRV14 (1059) = experiment: Anti-rhinovirus activity (MTT), HRV14; assay type: cell-based, human rhinovirus; parameters: Anti-Rhinovirus activity, HRV14: unit not given here
HRV13 (353) = experiment: Anti-rhinovirus spectrum (MTT), HRV13; assay type: cell-based, human rhinovirus; parameters: Anti-Rhinovirus activity, HRV13: unit not given here; conditions: HRV13
HRV3(FEB) = experiment: Anti-rhinovirus spectrum (MTT), HRV3; assay type: cell-based, human rhinovirus; parameters: Anti-Rhinovirus activity, HRV3: unit not given here; conditions: HRV3
[7] = tested on: coxsackievirus type B4 (CB4,JVB); experiment: In vitro anti-picornavirus activity (MTT), CB4; assay type: cell-based; conditions: HeLa cells, MTT method, 37° C.
HRV5 = experiment: Anti-rhinovirus spectrum (MTT), HRV5; assay type: cell-based, human rhinovirus; parameters: Anti-Rhinovirus activity, HRV5: unit not given here; conditions: HRV5
[8] = tested on: simian rotavirus (SRoV, SA11); experiment: In vitro anti-rotavirus activity (plaque reduction), SRoV; assay type: cell-based; conditions: MA104 cells, four days after infection
Method: as §1

HRV61 (6669-CV39) = experiment: Anti-rhinovirus spectrum (MTT), HRV61; assay type: cell-based, human rhinovirus; parameters: Anti-Rhinovirus activity, HRV61: unit not given here; conditions: HRV61
[9] = HeLa (Ohio strain) cells, MTT method, 33° C.

CCc1ccc2c(c1)Cc1c-2n(CC)c2ccc(C(C)C)cc2c1=O [Compound B9, 2.5-Diethyl-8-isopropyl-5,10-dihydro-11H-indeno[1,2-b]quinolin-10-one]
Cytotoxicity CC50 HeLa(Ohio) (HeLa (Ohio strain)cells): >1 µg/mL | IC50 Echo 11 [1]: 0.18 µg/mL (≈ 0.543 µM) | Anti-Rhinovirus activity, HRV16 (HRV16 (11757)): 0.47 | Anti-Rhinovirus activity, HRV31 (HRV31 (41F)): 0.15 | Anti-Rhinovirus activity, HRV32 (HRV32 (363)): 0.13 | Anti-Rhinovirus activity, HRV1B ([2]; HRV1B): 0.25 | IC50 HRV1B [2, 9]: 0.25 µg/mL (≈ 0.754 µM) | Cytotoxicity CC50 HeLa-S3 (HeLa-S3 cells): >1 µg/mL | Anti-Rhinovirus activity, Clinical isolated strain [3]: 0.31 | IC50 CA7 [4]: 0.71 µg/mL (≈ 2.14 µM) | Anti-Rhinovirus activity, HRV39 (HRV39 (209)): 0.20 | Cytotoxicity CC50 HeLa (HeLa cells): >1 µg/mL | Anti-Rhinovirus activity, HRV36 (HRV36 (342H)): 0.16 | Anti-Rhinovirus activity, HRV10 (HRV10 (204-CV14)): 0.47 | Anti-Rhinovirus activity, HRV29 (HRV29 (5582)): 0.19 | Anti-Rhinovirus activity, HRV89 (HRV 89 (41617-Gallo); HRV89): 0.21 | IC50 HRV89 (HRV 89 (41617-Gallo); [9]): 0.21 µg/mL (≈ 0.634 µM) | Anti-Rhinovirus activity, HRV1A (HRV1A (E28); HRV1A): >1.0 | IC50 HRV 1A (HRV1A (E28); [9]): >1 µg/mL | Anti-Rhinovirus activity, HRV21 (HRV21 (47)): 0.16 | Anti-Rhinovirus activity, HRV8 (HRV8(MRH)): 0.15 | Anti-Rhinovirus activity, HRV2 (HRV 2 (HGP); HRV2): 0.20 | IC50 HRV2 (HRV 2 (HGP); [9]): 0.20 µg/mL (≈ 0.603 µM) | IC50 Polio 1 [5]: 0.18 µg/mL (≈ 0.543 µM) | Anti-Rhinovirus activity, HRV33 (HRV33 (1200)): 0.094 | Anti-rotavirus activity IC50 HRoV(Odelia) [6]: 0.56 µg/mL | Anti-Rhinovirus activity, HRV50 (HRV50(A2#58)): 0.13 | Anti-Rhinovirus activity, HRV41 (HRV41 (56110)): 0.13 | Anti-Rhinovirus activity, HRV14 (HRV14 (1059); HRV14): 0.58 | IC50 HRV 14 (HRV14 (1059); [9]): 0.58 µg/mL (≈ 1.75 µM) | Anti-Rhinovirus activity, HRV13 (HRV13 (353)): 0.14 | Anti-Rhinovirus activity, HRV3 (HRV3(FEB)): 0.23 | IC50 CB4 [7]: 0.56 µg/mL (≈ 1.69 µM) | Anti-Rhinovirus activity, HRV5 (HRV5): 0.17 | Anti-rotavirus activity IC50 SRoV(SA11) [8]: 0.59 µg/mL | Anti-Rhinovirus activity, HRV61 (HRV61 (6669-CV39)): 0.16
